Measured values from US8772287B2, “Pyrimidinyl and 1,3,5-triazinyl benzimidazole sulfonamides and their use in cancer therapy” (VetDC, Inc., priority 2009, dated 2014).
Like-named read-outs stand apart in the source and are kept apart here.

Experiments:
p110β/p85 = p110β/p85 (Homo sapiens, UniProt P42338); assay: Inhibition of isolated enzyme p110β/p85 (lipid kinase, [γ-33P]ATP, TLC); type: biochemical; details: recombinant enzyme, 100 μM ATP, nine concentrations, average of two experiments
Procedure: (§1) Compounds were evaluated for their ability to inhibit Class I PI 3-kinase enzymes p110δ/p85, p110α/p85, and p110β/p85. Reaction mixtures comprising 0.1 μg of a recombinant enzyme, 10 μg of L-α-phosphatidylinositol, and 2× Lipid Kinase Buffer (40 mM Tris-HCl, pH 7.4, 200 mM NaCl, 1 mM EDTA), which contains either DMSO only as a control or the test compound in DMSO (the final DMSO concentration is 1%), were activated by the addition of an ATP mix (5 mM MgCl2, 100 μM ATP, and 0.1 μL [γ^33P]ATP). Reactions were incubated at room temperature for 1 hr, and then stopped by the addition of 1M HCl. The lipids were then extracted using a two step procedure. Firstly, 200 μL of chloroform/methanol (1:1) was added, the biphasic reactions mixed and centrifuged briefly, and the inorganic phase was removed and discarded. Following this, 80 μL of methanol:HCl (1:1) was added and the same procedure followed. The organic phase (70 μL) was then transferred to a clean 1.6 mL tube and the reactions were dried using a Speedvac, with no heating, for 30 min. The reactions were spotted onto TLC plates (Merck Ltd) and developed for 1 hr in propanol-1:2 M acetic acid (13:7). The TLC plates were then dried at room temperature and quantified using a phosphorimager (StormImager, Amersham). Nine compound concentrations were used for each test compound to determine its IC50 value. Each experiment was performed twice and the average IC50 value is used herein.

p110α/p85 = p110α/p85 (Homo sapiens, UniProt P42336); assay: Inhibition of isolated enzyme p110α/p85 (lipid kinase, [γ-33P]ATP, TLC); type: biochemical; details: recombinant enzyme, 100 μM ATP, nine concentrations, average of two experiments
Chain of p110α/p85 (P42336 whole entry): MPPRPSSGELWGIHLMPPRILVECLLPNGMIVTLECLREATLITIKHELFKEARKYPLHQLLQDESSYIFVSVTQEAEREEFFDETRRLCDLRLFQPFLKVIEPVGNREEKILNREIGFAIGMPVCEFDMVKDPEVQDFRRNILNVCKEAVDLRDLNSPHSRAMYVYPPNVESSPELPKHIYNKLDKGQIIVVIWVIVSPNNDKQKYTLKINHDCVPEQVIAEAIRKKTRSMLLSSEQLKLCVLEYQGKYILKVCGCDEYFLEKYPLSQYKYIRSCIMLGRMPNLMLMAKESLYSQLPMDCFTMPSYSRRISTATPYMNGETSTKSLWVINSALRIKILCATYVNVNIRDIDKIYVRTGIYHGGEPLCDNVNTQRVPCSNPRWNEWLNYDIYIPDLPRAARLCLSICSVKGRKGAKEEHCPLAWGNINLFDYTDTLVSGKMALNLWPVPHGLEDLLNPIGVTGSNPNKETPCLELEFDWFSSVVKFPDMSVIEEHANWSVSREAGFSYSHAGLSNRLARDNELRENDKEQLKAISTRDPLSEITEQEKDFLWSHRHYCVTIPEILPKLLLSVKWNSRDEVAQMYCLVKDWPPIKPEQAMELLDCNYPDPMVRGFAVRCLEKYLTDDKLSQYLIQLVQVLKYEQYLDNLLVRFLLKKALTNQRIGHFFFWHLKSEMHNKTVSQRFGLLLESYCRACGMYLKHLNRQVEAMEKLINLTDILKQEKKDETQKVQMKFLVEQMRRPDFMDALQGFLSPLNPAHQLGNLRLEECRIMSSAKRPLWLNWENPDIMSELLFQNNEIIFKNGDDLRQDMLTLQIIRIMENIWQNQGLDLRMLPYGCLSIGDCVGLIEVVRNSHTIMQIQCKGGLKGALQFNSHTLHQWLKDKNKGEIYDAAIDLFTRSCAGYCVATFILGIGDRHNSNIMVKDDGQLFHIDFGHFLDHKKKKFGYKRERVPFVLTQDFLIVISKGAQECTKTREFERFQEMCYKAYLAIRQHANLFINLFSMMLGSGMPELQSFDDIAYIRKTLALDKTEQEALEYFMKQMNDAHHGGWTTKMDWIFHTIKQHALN
Chain of p110α/p85 (P27986 whole entry partner): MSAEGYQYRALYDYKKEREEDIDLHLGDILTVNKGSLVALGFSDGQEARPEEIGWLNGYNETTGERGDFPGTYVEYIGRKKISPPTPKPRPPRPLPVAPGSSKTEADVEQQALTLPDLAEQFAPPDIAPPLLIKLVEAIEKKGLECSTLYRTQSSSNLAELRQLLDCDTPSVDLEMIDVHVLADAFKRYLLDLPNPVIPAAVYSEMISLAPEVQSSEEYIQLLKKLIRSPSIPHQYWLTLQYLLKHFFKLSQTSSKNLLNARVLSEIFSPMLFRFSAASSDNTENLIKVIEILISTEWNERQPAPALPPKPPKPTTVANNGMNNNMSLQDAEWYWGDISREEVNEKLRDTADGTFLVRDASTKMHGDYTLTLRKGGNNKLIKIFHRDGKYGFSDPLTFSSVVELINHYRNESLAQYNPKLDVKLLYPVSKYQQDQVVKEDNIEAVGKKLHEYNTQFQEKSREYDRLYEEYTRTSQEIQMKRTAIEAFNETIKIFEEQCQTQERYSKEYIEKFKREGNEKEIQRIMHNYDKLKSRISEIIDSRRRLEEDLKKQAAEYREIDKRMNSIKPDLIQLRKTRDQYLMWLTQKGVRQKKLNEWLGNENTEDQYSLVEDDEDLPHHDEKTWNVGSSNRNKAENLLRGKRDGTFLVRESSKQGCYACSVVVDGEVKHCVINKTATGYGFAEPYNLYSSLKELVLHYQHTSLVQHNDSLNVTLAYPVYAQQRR
Procedure: as §1

p110δ/p85 = p110δ/p85 (Homo sapiens, UniProt O00329); assay: Inhibition of isolated enzyme p110δ/p85 (lipid kinase, [γ-33P]ATP, TLC); type: biochemical; details: recombinant enzyme, 100 μM ATP, nine concentrations, average of two experiments
Chain of p110δ/p85 (O00329 whole entry, species assumed): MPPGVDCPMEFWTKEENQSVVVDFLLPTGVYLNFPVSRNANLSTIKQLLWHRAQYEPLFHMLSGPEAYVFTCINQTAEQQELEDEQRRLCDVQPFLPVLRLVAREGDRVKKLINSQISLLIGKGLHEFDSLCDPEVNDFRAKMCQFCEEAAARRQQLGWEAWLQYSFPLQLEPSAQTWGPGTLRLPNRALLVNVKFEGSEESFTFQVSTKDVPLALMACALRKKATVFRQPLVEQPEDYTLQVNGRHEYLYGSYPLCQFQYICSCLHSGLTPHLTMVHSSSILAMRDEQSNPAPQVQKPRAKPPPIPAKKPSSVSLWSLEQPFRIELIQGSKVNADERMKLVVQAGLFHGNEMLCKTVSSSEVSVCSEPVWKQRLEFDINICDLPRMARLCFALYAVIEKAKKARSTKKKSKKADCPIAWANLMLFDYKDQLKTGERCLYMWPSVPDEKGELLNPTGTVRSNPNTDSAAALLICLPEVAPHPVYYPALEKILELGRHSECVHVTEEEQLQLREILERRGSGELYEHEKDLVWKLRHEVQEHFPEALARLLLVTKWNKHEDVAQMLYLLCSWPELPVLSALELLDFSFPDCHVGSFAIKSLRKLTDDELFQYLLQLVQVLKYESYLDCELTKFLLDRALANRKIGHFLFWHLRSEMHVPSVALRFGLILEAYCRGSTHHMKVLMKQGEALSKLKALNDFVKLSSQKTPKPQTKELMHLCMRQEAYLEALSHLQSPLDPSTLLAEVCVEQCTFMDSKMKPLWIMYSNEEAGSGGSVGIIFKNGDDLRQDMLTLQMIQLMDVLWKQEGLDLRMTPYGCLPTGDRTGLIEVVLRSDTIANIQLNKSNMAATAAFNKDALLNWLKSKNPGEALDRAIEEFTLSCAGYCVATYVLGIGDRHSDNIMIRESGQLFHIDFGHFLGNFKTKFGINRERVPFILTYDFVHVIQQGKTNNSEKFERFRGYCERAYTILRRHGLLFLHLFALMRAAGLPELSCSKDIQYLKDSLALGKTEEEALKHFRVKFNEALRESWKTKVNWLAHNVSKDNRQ
Chain of p110δ/p85 (P27986 whole entry partner, species assumed): as the sequence (P27986 whole entry partner) above
Procedure: as §1

NZB5 = assay: Cellular growth inhibition, NZB5 (3H-thymidine incorporation); type: cell-based, human
Procedure: (§2) The compounds were evaluated against two early passage human cell lines NZB5 and NZOV9 (Marshall et al., Oncol. Res. 2004, 14, 297). The cells were grown in ITS medium (α-modified minimal essential medium supplemented insulin, transferrin, selenite, and 5% fetal bovine serum) and grown on 96-well tissue culture plates under an atmosphere of 5% O2, 5% CO2, and 90% N2. Individual wells contained 500-1,000 cells (depending on the growth rate) in a volume of 150 μL. Compounds were added at 10-fold concentration steps to a maximum of 20 μM and plates were incubated for five days, with ^3H-thymidine being added over the last 6 hrs. Cells were harvested and incorporated radioactivity measured. Duplicate samples were analyzed for each compound dose with multiple control samples.

NZOV9 = assay: Cellular growth inhibition, NZOV9 (3H-thymidine incorporation); type: cell-based, human
Procedure: as §2

[1] = Homo sapiens, NZB5, read-out: Cell IC50 NZB5
[2] = Homo sapiens, NZOV9, read-out: Cell IC50 NZOV9

Chain of p110β/p85 (P42338 whole entry, species assumed): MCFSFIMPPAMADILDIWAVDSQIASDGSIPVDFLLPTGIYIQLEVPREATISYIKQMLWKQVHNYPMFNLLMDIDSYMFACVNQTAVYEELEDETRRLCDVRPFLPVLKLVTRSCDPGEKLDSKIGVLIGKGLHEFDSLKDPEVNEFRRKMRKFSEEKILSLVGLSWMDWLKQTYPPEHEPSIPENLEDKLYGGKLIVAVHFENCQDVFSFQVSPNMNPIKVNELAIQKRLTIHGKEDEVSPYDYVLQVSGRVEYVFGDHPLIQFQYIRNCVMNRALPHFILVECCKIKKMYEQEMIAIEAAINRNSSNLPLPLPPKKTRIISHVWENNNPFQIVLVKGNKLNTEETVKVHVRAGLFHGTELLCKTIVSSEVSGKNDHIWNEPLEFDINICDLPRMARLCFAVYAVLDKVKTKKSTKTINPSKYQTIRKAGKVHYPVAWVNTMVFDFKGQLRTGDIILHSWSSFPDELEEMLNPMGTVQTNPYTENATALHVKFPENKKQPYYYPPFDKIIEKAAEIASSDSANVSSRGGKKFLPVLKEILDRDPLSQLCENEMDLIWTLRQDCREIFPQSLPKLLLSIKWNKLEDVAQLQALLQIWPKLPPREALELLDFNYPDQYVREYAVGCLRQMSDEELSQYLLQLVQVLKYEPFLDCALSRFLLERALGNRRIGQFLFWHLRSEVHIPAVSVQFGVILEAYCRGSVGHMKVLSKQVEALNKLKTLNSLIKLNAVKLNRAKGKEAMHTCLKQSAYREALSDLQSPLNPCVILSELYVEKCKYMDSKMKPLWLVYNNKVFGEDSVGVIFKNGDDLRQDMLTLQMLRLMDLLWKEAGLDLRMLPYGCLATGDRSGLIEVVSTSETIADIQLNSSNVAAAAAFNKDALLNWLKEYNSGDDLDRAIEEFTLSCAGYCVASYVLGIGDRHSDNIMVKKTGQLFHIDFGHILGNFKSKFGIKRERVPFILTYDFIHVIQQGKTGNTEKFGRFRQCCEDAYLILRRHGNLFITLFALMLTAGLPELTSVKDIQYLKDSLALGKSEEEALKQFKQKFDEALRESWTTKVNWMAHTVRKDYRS
Chain of p110β/p85 (P27986 whole entry partner, species assumed): as the sequence (P27986 whole entry partner) above

IC50 (p110δ/p85) | Compound | melting point | IC50 (NZB5; [1]) | IC50 (NZOV9; [2]) | also measured
– | COc1cccc2c1nc(C(F)F)n2-c1nc(N2CCOCC2)nc(N(CCCN(C)C)C2CCN(S(=O)(=O)CCl)CC2)n1 [Example 59, N^1-{1-[(chloromethyl)sulfonyl]-4-piperidinyl}-N^1-[4-[2-(difluoromethyl)-4-methoxy-1H-benzimidazol-1-yl]-6-(4-morpholinyl)-1,3,5-triazin-2-yl]-N^3,N^3-dimethyl-1,3-propanediamine] | – | – | – | IC50 (p110β/p85): > 1000 nM
< 100 nM | COc1cccc2c1nc(C(F)F)n2-c1nc(N2CCOCC2)nc(N2CCC(NS(=O)(=O)CCl)CC2)n1 [Example 61, chloro-N-{1-[4-[2-(difluoromethyl)-4-methoxy-1H-benzimidazol-1-yl]-6-(4-morpholinyl)-1,3,5-triazin-2-yl]-4-piperidinyl}methanesulfonamide] | 230 to 232 °C | – | – | IC50 (p110α/p85): < 100 nM
– | COc1cccc2c1nc(C(F)F)n2-c1nc(N2CCOCC2)nc(N2CCC(N(C)S(C)(=O)=O)C2)n1 (stereo in doubt) [Example 39, N-{(3S)-1-[4-[2-(difluoromethyl)-4-methoxy-1H-benzimidazol-1-yl]-6-(4-morpholinyl)-1,3,5-triazin-2-yl]pyrrolidinyl}-N-methylmethanesulfonamide] | 244 to 247 °C | 100 to 1000 nM | < 100 nM | –
100 to 1000 nM | COc1cccc2c1nc(C(F)F)n2-c1nc(N2CCOCC2)nc(N2CC(NS(=O)(=O)C(F)(F)F)C2)n1 [Example 88, N-{1-[4-[2-(difluoromethyl)-4-methoxy-1H-benzimidazol-1-yl]-6-(4-morpholinyl)-1,3,5-triazin-2-yl]-3-azetidinyl}(trifluoro)methanesulfonamide] | – | – | – | IC50 (p110α/p85): < 100 nM
– | COc1cccc2c1nc(C(F)F)n2-c1nc(N2CCOCC2)nc(N2CCC(N(C)S(C)(=O)=O)C2)n1 (stereo in doubt) [Example 37, N-{(3R)-1-[4-[2-(difluoromethyl)-4-methoxy-1H-benzimidazol-1-yl]-6-(4-morpholinyl)-1,3,5-triazin-2-yl]pyrrolidinyl}-N-methylmethanesulfonamide] | 242 to 244 °C | 100 to 1000 nM | < 100 nM | –
– | COc1cccc2c1nc(C(F)F)n2-c1nc(N2CCOCC2)nc(N2CCCC(N(C)S(C)(=O)=O)C2)n1 (stereo in doubt) [Example 45, N-{(3R)-1-[4-[2-(difluoromethyl)-4-methoxy-1H-benzimidazol-1-yl]-6-(4-morpholinyl)-1,3,5-triazin-2-yl]piperidinyl}-N-methylmethanesulfonamide] | 224 to 226 °C | 100 to 1000 nM | < 100 nM | –
– | COc1cccc2c1nc(C(F)F)n2-c1nc(N2CCOCC2)nc(N2CCCC(NS(C)(=O)=O)C2)n1 (stereo in doubt) [Example 46, N-{(3S)-1-[4-[2-(difluoromethyl)-4-methoxy-1H-benzimidazol-1-yl]-6-(4-morpholinyl)-1,3,5-triazin-2-yl]piperidinyl}methanesulfonamide] | 220 to 221 °C | 100 to 1000 nM | < 100 nM | –
– | COc1cccc2c1nc(C(F)F)n2-c1nc(N2CCOCC2)nc(N(C)[C@@H]2CCN(S(C)(=O)=O)C2)n1 [Example 33, 4-[2-(difluoromethyl)-4-methoxy-1H-benzimidazol-1-yl]-N-methyl-N-[(3R)-1-(methylsulfonyl)pyrrolidinyl]-6-(4-morpholinyl)-1,3,5-triazin-2-amine] | 238 to 240 °C | < 100 nM | < 100 nM | –
> 1000 nM | COc1cccc2c1nc(C(F)F)n2-c1nc(N2CCOCC2)nc(N2CCN(S(=O)(=O)C(F)(F)F)CC2)n1 [Example 86, 2-(difluoromethyl)-4-methoxy-1-(4-(4-morpholinyl)-6-{4-[(trifluoromethyl)-sulfonyl]-1-piperazinyl}-1,3,5-triazin-2-yl)-1H-benzimidazole] | 272 to 273 °C | – | – | IC50 (p110α/p85): 100 to 1000 nM
> 1000 nM | COc1cccc2c1nc(C(F)F)n2-c1nc(-c2ccc(S(=O)(=O)N3CCN(C)CC3)cc2)nc(N2CCOCC2)n1 [Example 95, 2-(difluoromethyl)-4-methoxy-1-[4-{4-[(4-methyl-1-piperazinyl)sulfonyl]phenyl}-6-(4-morpholinyl)-1,3,5-triazin-2-yl]-1H-benzimidazole] | – | – | – | –
– | COc1cccc2c1nc(C(F)F)n2-c1nc(N2CCOCC2)nc(N2CCC(NS(C)(=O)=O)C2)n1 (stereo in doubt) [Example 38, N-{(3S)-1-[4-[2-(difluoromethyl)-4-methoxy-1H-benzimidazol-1-yl]-6-(4-morpholinyl)-1,3,5-triazin-2-yl]pyrrolidinyl}methanesulfonamide] | 290 to 292 °C | 100 to 1000 nM | < 100 nM | –
100 to 1000 nM | COc1cccc2c1nc(C(F)F)n2-c1nc(N2CCOCC2)nc(N2CCC(NS(=O)(=O)C(F)(F)F)CC2)n1 [Example 87, N-{1-[4-[2-(difluoromethyl)-4-methoxy-1H-benzimidazol-1-yl]-6-(4-morpholinyl)-1,3,5-triazin-2-yl]-4-piperidinyl}trifluoromethanesulfonamide] | 282 to 285 °C | – | – | IC50 (p110α/p85): < 100 nM
– | COc1cccc2c1nc(C(F)F)n2-c1nc(N2CCOCC2)nc(N2CCCC(NS(C)(=O)=O)C2)n1 (stereo in doubt) [Example 44, N-{(3R)-1-[4-[2-(difluoromethyl)-4-methoxy-1H-benzimidazol-1-yl]-6-(4-morpholinyl)-1,3,5-triazin-2-yl]piperidinyl}methanesulfonamide] | 220 to 221 °C | 100 to 1000 nM | < 100 nM | –
– | COc1cccc2c1nc(C(F)F)n2-c1nc(N[C@H]2CCCN(S(C)(=O)=O)C2)nc(N2CCOCC2)n1 [Example 42, 4-[2-(difluoromethyl)-4-methoxy-1H-benzimidazol-1-yl]-N-[(3S)-1-(methylsulfonyl)piperidinyl]-6-(4-morpholinyl)-1,3,5-triazin-2-amine] | 239 to 241 °C | – | – | IC50 (NZB5; read-out: Cell IC50 NZB5, five days incubation, 3H-thymidine over the last 6 hrs): 100 to 1000 nM; IC50 (NZOV9; read-out: Cell IC50 NZOV9, five days incubation, 3H-thymidine over the last 6 hrs): < 100 nM
– | COc1cccc2c1nc(C(F)F)n2-c1nc(N2CCOCC2)nc(N2CCCC(N(C)S(C)(=O)=O)C2)n1 (stereo in doubt) [Example 47, N-{(3S)-1-[4-[2-(difluoromethyl)-4-methoxy-1H-benzimidazol-1-yl]-6-(4-morpholinyl)-1,3,5-triazin-2-yl]piperidinyl}-N-methylmethanesulfonamide] | 221 to 223 °C | 100 to 1000 nM | < 100 nM | –
< 100 nM | COc1cccc2c1nc(C(F)F)n2-c1nc(Nc2ccc(NS(C)(=O)=O)nc2)nc(N2CCOCC2)n1 [Example 100, N-(5-{[4-[2-(difluoromethyl)-4-methoxy-1H-benzimidazol-1-yl]-6-(4-morpholinyl)-1,3,5-triazin-2-yl]amino}-2-pyridinyl)methanesulfonamide] | 302 to 306 °C | – | – | IC50 (p110α/p85): < 100 nM; IC50 (NZB5; Homo sapiens, NZB5, five days incubation, 3H-thymidine over the last 6 hrs, read-out: Cell IC50 NZB5): 100 to 1000 nM; IC50 (NZOV9; Homo sapiens, NZOV9, five days incubation, 3H-thymidine over the last 6 hrs, read-out: Cell IC50 NZOV9): < 100 nM
– | COc1cccc2c1nc(C(F)F)n2-c1nc(N[C@@H]2CCN(S(C)(=O)=O)C2)nc(N2CCOCC2)n1 [Example 32, 4-[2-(difluoromethyl)-4-methoxy-1H-benzimidazol-1-yl]-N-[(3R)-1-(methylsulfonyl)pyrrolidinyl]-6-(4-morpholinyl)-1,3,5-triazin-2-amine] | 260 to 261 °C | 100 to 1000 nM | < 100 nM | –
